Measured values reported in patent US9597310B2, “Indanyloxydihydrobenzofuranylacetic acids” (Boehringer Ingelheim International GmbH, priority 2012, dated 2017).

Columns and labels:
human GPR40 receptor = human GPR40 receptor (Homo sapiens (Human), UniProt O14842); assay: IP1 accumulation measurements using the IPOne assay system; assay type: cell-based; conditions: 1321N1 cells stably expressing human GPR40 receptor, 1 h stimulation
Method: IP1 accumulation measurements using the IPOne assay system—1321N1 cells stably expressing human GPR40 receptor (Euroscreen, Belgium) are seeded 24 h before the assay in white 384-well plates in culture medium containing 10% FCS, 1% Na-Pyruvate and 400 μg/mL G418. IP1 is assayed according to the manufacturer's description (Cisbio Bioassays, France). In brief, the assay is started by substitution of the culture medium by stimulation buffer (Hepes 10 mM, CaCl2 1 mM, MgCl2 0.5 mM, KCl 4.2 mM, NaCl 146 mM, glucose 5.5 mM and LiCl 50 mM, pH 7.4). Cells are stimulated for 1 h at 37° C., 5% CO2 by addition of the compounds that are diluted in stimulation buffer containing LiCl. Assays are stopped by adding HTRF-conjugates (IP1-d2 and Anti-IP1 cryptate Tb) and lysis buffer, provided by the manufacturer. After an incubation time of 1 h at room temperature plates are measured using an EnVision™, Perkin Elmer. The obtained fluorescence ratios at 665/615 […] are then used to calculate the pEC50 values using Assay Explorer 3.3 Software (Accelrys, Inc.) by interpolation using an IP1 reference curve and subsequent sigmoidal curve fitting allowing for a variable hill slope.

[1] = Chemical stability (degradation kinetics) in acidic aqueous media, HPLC recovery rate; assay type: physicochemical; conditions: pH value of ca. 1.2, acetonitrile/0.1 M aqueous HCl (2:3), 37° C.
Method: Degradation kinetics is used to simulate chemical stability of compounds in the acidic part of the gastro intestinal tract.
The chemical stability of the compounds of the invention at pH value of ca. 1.2 is determined as follows:
Compound is dissolved in an HPLC vial either in a mixture of acetonitrile/0.1 M aqueous HCl (2:3; pH ca. 1.2) or in a mixture of acetonitrile/McIlvaine buffer pH 7.4 (2:3) to get a concentration of approximately 0.25 mg/ml. The vial was then transferred into an HPLC autosampler system and maintained at a temperature of 37° C. A first sample is taken and injected immediately into a standard HPLC system with a UV DAD detector. Further samples are injected after 2, 4, 6, 8 and 10 hours. Degradation of the compound is measured by determining the recovery rate of compound [%] for each injection using an HPLC standard gradient method. Therefore the peak area of the main peak for the first injection (AUt0) is determined and set as 100%. Peak area of the main peak is determined also for the further injections (AUtn, n=2, 4, 6, 8, 10) and expressed as fraction of […] [%].

Chain of human GPR40 receptor (O14842 whole entry): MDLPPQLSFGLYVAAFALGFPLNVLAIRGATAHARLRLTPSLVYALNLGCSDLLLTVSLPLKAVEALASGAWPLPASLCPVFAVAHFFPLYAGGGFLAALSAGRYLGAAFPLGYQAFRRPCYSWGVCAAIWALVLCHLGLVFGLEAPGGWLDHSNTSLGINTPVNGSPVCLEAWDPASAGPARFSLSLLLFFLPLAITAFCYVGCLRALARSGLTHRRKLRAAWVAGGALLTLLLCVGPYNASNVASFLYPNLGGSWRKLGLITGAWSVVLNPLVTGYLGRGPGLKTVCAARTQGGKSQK

Row | Structure (SMILES) | EC50 (human GPR40 receptor) [nM] | Recovery rate after 2 h [1] [%]
1 | COCCOc1ccc(Oc2ccc(F)c3c2CC[C@H]3Oc2ccc3c(c2)OC[C@H]3CC(=O)O)cc1 [Example 1, [(S)-6-{(R)-7-Fluoro-4-[4-(2-methoxy-ethoxy)-phenoxy]-indan-1-yloxy}-2,3-dihydro-benzofuran-3-yl]-acetic acid] | 7 | 97.5
2 | CC(C)(O)CCOc1ccc(Oc2ccc(F)c3c2CC[C@H]3Oc2ccc3c(c2)OC[C@H]3CC(=O)O)cc1 [Example 2, [(S)-6-{(R)-7-Fluoro-4-[4-(3-hydroxy-3-methyl-butoxy)-phenoxy]-indan-1-yloxy}-2,3-dihydro-benzofuran-3-yl]-acetic acid] | 5 | >98
3 | CC(C)(O)COc1ccc(Oc2ccc(F)c3c2CC[C@H]3Oc2ccc3c(c2)OC[C@H]3CC(=O)O)cc1 [Example 3, [(S)-6-{(R)-7-Fluoro-4-[4-(2-hydroxy-2-methyl-propoxy)-phenoxy]-indan-1-yloxy}-2,3-dihydro-benzofuran-3-yl]-acetic acid] | 13 | 97.5
4 | CC(=O)Nc1cccc(Oc2ccc(F)c3c2CC[C@H]3Oc2ccc3c(c2)OC[C@H]3CC(=O)O)c1 [Example 6, {(S)-6-[(R)-4-(3-Acetylamino-phenoxy)-7-fluoro-indan-1-yloxy]-2,3-dihydro-benzofuran-3-yl}-acetic acid] | 8 | >98
5 | O=C(O)C[C@@H]1COc2cc(O[C@@H]3CCc4c(Oc5ccc(C(=O)N6CCCC6)cc5)ccc(F)c43)ccc21 [Example 9, [(S)-6-{(R)-7-Fluoro-4-[4-(pyrrolidine-1-carbonyl)-phenoxy]-indan-1-yloxy}-2,3-dihydro-benzofuran-3-yl]-acetic acid] | 18 | >99
6 | O=C(O)C[C@@H]1COc2cc(O[C@@H]3CCc4c(Oc5ccc6c(c5)CCO6)ccc(F)c43)ccc21 [Example 11, {(S)-6-[(R)-4-(2,3-Dihydro-benzofuran-5-yloxy)-7-fluoro-indan-1-yloxy]-2,3-dihydro-benzofuran-3-yl}-acetic acid] | 6 | 96.5
7 | CCNC(=O)c1ccc(Oc2ccc(F)c3c2CC[C@H]3Oc2ccc3c(c2)OC[C@H]3CC(=O)O)cc1 [Example 12, {(S)-6-[(R)-4-(4-Ethylcarbamoyl-phenoxy)-7-fluoro-indan-1-yloxy]-2,3-dihydro-benzofuran-3-yl}-acetic acid] | 18 | >99
8 | N#Cc1cc(CN2CCOCC2)ccc1Oc1ccc(F)c2c1CC[C@H]2Oc1ccc2c(c1)OC[C@H]2CC(=O)O [Example 70, ((S)-6-{(R)-4-[2-Cyano-4-(morpholin-4-ylmethyl)phenoxy]-7-fluoro-indan-1-yloxy}-2,3-dihydrobenzofuran-3-yl)-acetic acid] | 44 | –
9 | O=C(O)C[C@@H]1COc2cc(OC3CCc4ccccc43)ccc21 (some centres unmarked) [XX, reference compound] | – | <5
10 | CC(C)c1cccc2c1CC[C@H]2Oc1ccc2c(c1)OC[C@H]2CC(=O)O [XXI, reference compound] | – | <5
